Measurements as given in patent US7527952B2 (Vertex Pharmaceuticals Incorporated, priority 1996, dated 2009).

Columns and labels:
[1] = test system: human type II IMPDH mutants of Ser 275, Ser 327 and Gln 368; experiment: MPA inhibition of IMPDH mutants of other active site residues; assay type: biochemical; conditions: mutations of Ser 275, Ser 327 and Gln 368
Method: Residues which make direct contact with MPA also were modified.
Cultures (500 ml) were grown at 37° C. for 14 to 16 hours after IPTG induction, and typically yielded 2 grams of cell paste. Cells were resuspended in 50 mM Tris, pH 8.0, 150 mM KCl, 3 mM EDTA, 2 mM DTT buffer containing 10% urea, and then lysed by addition of lysozyme (1 mg/g cell paste) and sonication. IMPDH wild-type and mutant proteins were precipitated from crude lysates by 25% w/v ammonium sulfate. Up to 150 mgs of at least 65%-70% pure IMPDH was obtained by this single purification step. The partially purified IMPDH was resuspended in 50 mM Tris, pH 8.0, 100 mM KCl, 3 mM EDTA, 2 mM DTT, 10% glycerol buffer and used for kinetic analysis. Second order rate constants (k cat/Km, M^−1sec^−1) were calculated from IMP titration data at saturating (400 mM). NAD concentration obtained by monitoring the rate of NADH production at 340 nm at 37° C. […] Ki app. values for MPA were obtained from the rate vs. inhibitor data of IMPDH mutants at saturating IMP and NAD concentrations.

[2] = test system: murine blastoma cells; conditions: cells selected for resistance, carrying the Thr 333 to Ile mutation; cited from earlier work
[3] = compared with MPA; cited from earlier work

Compound	effect of mutation on drug inhibition [1]	increased resistance to MPA [2]	fold less potent than MPA in a cellular assay [3]
mycophenolic acid [MPA]	little effect	10,000 fold	
COc1c(CC=C(C)CCC(=O)O)cc2c(c1C)COC2=O [des-hydroxy-MPA]			at least 1,000 fold
